From US10149470B2, “Methods and compositions for vein harvest and autografting” (Vanderbilt University, priority 2009, dated 2018)
Entries after “also recorded” stand apart in the source; their conditions may differ.

Experiments:
Type in all cases: cell-based
[1] = tested on: porcine saphenous vein; test: KCl-induced contraction of porcine saphenous vein after stretch injury, with or without dye
Procedure: Freshly isolated porcine saphenous vein was collected in cold transplant harvest buffer (100 mM potassium lactobionate, 25 mM KH2PO4, 5 mM MgSO4, 30 mM raffinose, 5 mM adenosine, 3 mM glutathione, 1 mM allopurinol, 50 g/L hydroxyethyl starch, pH 7.4). The vessels were tested within 24 hours of harvest and storage in transplant harvest buffer at 4° C. The vein was dissected free of fat and connective tissue and cut into 2 cm long segments. The segments were stretched to twice their resting length (stretched; n=7) or not manipulated (control; n=12). After stretching, the segments from both groups were further divided. A solution of erioglaucine (FCF, 2.6 mM, in 5% propylene glycol and water) or vehicle was then applied with a cotton swab in a longitudinal line to the untreated (FCF; n=8) or the stretched (Stretched+FCF; n=3) vein segments. The segments were incubated at room temperature for 15 min in Plasmalyte and then cut into rings. The rings were suspended in a muscle bath containing a bicarbonate buffer (120 mM NaCl, 4.7 mM KCl, 1.0 mM MgSO4, 1.0 mM NaH2PO4, 10 mM glucose, 1.5 mM CaCl2, and 25 mM […], pH 7.4), bubbled with 95% O2/5% CO2 at 37° C. The rings were manually stretched to 4 g of tension, and maintained at a resting tension of 1 g and equilibrated for ˜2 hr.
Rings from stretched segments were either incubated with 50 μM Allura Red (+Red) or 50 μM of erioglaucine (+FCF) for 30 min. The rings were then allowed to equilibrate in the bicarbonate buffer for before contracting with 110 mM KCl. Force generated was converted to stress (10^5 N/m^2). Data represent relative contractile response to Control rings which was set as 100%.

[2] = tested on: human saphenous vein; test: KCl-induced contraction of human saphenous vein rings treated with erioglaucine; settings: FIGS. 11A-B
Procedure: Effect of erioglaucine on human saphenous vein was determined using de-identified discarded segments of human saphenous vein from patients undergoing coronary artery bypass or peripheral vascular bypass surgery (n=4). The veins were stored in a saline solution until the end of the surgical procedure at which time they were placed in cold transplant harvest buffer (100 mM potassium lactobionate, 25 mM KH2PO4, 5 mM MgSO4, 30 mM raffinose, 5 mM adenosine, 3 mM glutathione, 1 mM allopurinol, 50 g/L hydroxyethyl starch, pH 7.4). The vessels were tested within 24 hrs of harvest storage in transplant harvest buffer at 4° C. To test the viability, rings 1.0 mm in width were cut from segments of saphenous vein dissected free of fat and connective tissue, treated with either a solution of erioglaucine (FCF, 2.6 mM, in 5% propylene glycol and water) or vehicle and incubated for 30 min at room temperature. The tissues were then stripped of the endothelium and suspended in a muscle bath containing a bicarbonate buffer, gassed with 95% O2/5% CO2 at 37° C. The rings were manually stretched to 4 g of tension, and was maintained at a resting tension of 1 g was obtained and equilibrated for ˜2 hr. […] The rings were contracted with 110 mM KCl (with equimolar replacement of NaCl in bicarbonate buffer), and the force generated was measured. […]

[3] = tested on: human saphenous vein; test: BzATP-induced contraction of saphenous vein rings after erioglaucine pretreatment; settings: erioglaucine 50-200 μM for 30 min, then 100 μM BzATP; FIG. 12
Procedure: Human saphenous vein segments were collected after harvest before surgical manipulation from patients undergoing coronary artery bypass or peripheral vascular bypass surgery and stored in PlasmaLyte. The vessels were tested within 2 hours of harvest. Freshly isolated porcine saphenous vein was collected in cold transplant harvest buffer (100 mM potassium lactobionate, 25 mM KH2PO4, 5 mM MgSO4, 30 mM Raffinose, 5 mM Adenosine, 3 mM Glutathione, 1 mM Allopurinol, 50 g/L Hydroxyethyl starch, pH 7.4). The vessels were tested within 24 hours of harvest. Rings 1.0 mm in width were cut from porcine saphenous veins (FIG. 12A, n=2) and unmanipulated human saphenous vein (FIG. 12B, n=4) dissected free of fat and connective tissue. The rings were then stripped of the endothelium and suspended in a muscle bath containing a bicarbonate buffer, bubbled with 95% O2/5% CO2 at 37° C. The rings were manually stretched to 4 g of tension, and was maintained at a resting tension of 1 g was obtained and equilibrated for ˜2 hr. Force measurements were obtained using a Radnoti Glass Technology (Monrovia, Calif.) force transducer (159901A) interfaced with a Powerlab data acquisition system and Chart software (AD Instruments, Colorado Springs, Colo.). Rings were contracted with 110 mM KCl. […] Force was measured and converted to stress. Response was expressed as % of maximal KCl contraction. […]

[4] = tested on: human saphenous vein; test: Intimal thickness of human saphenous vein rings in 14 day organ culture; settings: 50 μM erioglaucine, 14 days culture, compared to Control; FIG. 13
Procedure: Segments of human saphenous vein were collected prior to preparation of the vein for transplantation into the arterial circulation (unmanipulated, UM) and after surgical preparation (after manipulation, AM) from the same patients in PlasmaLyte and were used within 2 hr of harvest. The segment was cut into ˜1 mm rings and one ring from each group was fixed in formalin (Pre-culture). The other rings were cultured in RPMI medium supplemented with 1% L-glutamine, 1% penicillin/streptomycin and 30% fetal bovine serum at 5% CO2 and 37° C. in the absence (Control) or presence of 50 μM erioglaucine (FCF) for 14 days. After 14 days, the rings were fixed in formalin, sectioned at 5 μm and stained using Verhoff Van Gieson stain. Light micrograph of the rings was captured using an Axiovert 200 and intimal thickness was measured using AxioVision. Data represent % increase of intimal thickness related to basal intimal thickness of the pre-culture ring which was set as 0%. The error bars show the standard error of the mean.

[5] = tested on: porcine saphenous vein; test: Intimal thickening of distended porcine saphenous vein rings in 14 day organ culture; settings: 50 μM dye, 14 days culture, distended to >300 mm Hg, compared to Distended-Control; FIG. 14
Procedure: Fresh porcine saphenous vein was harvested by a no touch method under sterile conditions and stored in cold transplant harvest buffer (100 mM potassium lactobionate, 25 mM KH2PO4, 5 mM MgSO4, 30 mM Raffinose, 5 mM Adenosine, 3 mM Glutathione, 1 mM Allopurinol, 50 g/L Hydroxyethyl starch, pH 7.4). The vessels were used within 24 hr of harvest. The veins were divided into three segments that were left untreated (Unmanipulated, n=7), distended (Distended, n=8) to >300 mm Hg, or distended in the presence of the pressure relief valve (Pop Off, n=7). Each segment was then cut into ˜1 mm rings and one ring from each condition was immediately fixed in formalin (Pre-culture). The other rings were cultured in RPMI medium supplemented with 1% L-glutamine, penicillin/streptomycin and 30% Fetal bovine serum at 5% CO2 and 37° C. in the absence (Control) or presence of either 50 μM erioglaucine (FCF), 50 μM brilliant blue G (BBG) or 50 μM Allura Red (Red) for 14 days. After 14 days, the rings were fixed in formalin, sectioned at 5 μm and stained using Verhoff Van Gieson stain. Light micrograph of the rings was captured using a Axiovert 200 and intimal thickness was measured using AxioVision.

## CCN(Cc1cccc(S(=O)(=O)[O-])c1)c1ccc(C(=C2C=CC(=[N+](CC)Cc3cccc(S(=O)(=O)[O-])c3)C=C2)c2ccccc2S(=O)(=O)[O-])cc1.[Na+].[Na+] [erioglaucine]
[1]; 50 μM dye for 30 min on rings from stretched segments, FIG. 10
  restoration of functional viability (contractile response to KCl) after stretch injury: significantly restored contractile response
[1]; FIG. 9
  restoration of functional viability after stretch injury (in words): restores functional viability
[2]
  smooth muscle viability (in words): restores smooth muscle viability
[3]
  BzATP induced contraction: significantly inhibited BzATP induced contraction; also recorded: blocks BzATP-induced contraction
[4]
  development of intimal thickness: inhibited the development of intimal thickness; also recorded: reduces intimal thickness
[5]
  distension induced increases in intimal thickening: inhibited distension induced increases in intimal thickening; also recorded: reduces intimal layer thickening
